A short description of data set [1]: Stability in human liver microsomes assessed as parent compound remaining measured after 30 mins. The class given is ADME, Microsome. Conditions: read-out: Stability. On the technique in general: Liver microsomes are vesicles of endoplasmic reticulum, rich in cytochrome P450 enzymes.
The target of data set [2] is T1, Voltage-dependent T-type calcium channel subunit alpha-1G (Homo sapiens, UniProt O43497). Description: Inhibition of recombinant human Cav3.1 expressed in HEK293 cells assessed as reduction in KCl-induced increase in intracellular calcium level at 10 uM by fura-2 AM indicator based FDSS assay relative to control. The class given is cell-based. (Calcium flux is commonly read through the fluorescence of an indicator in the cells.)

The target of data set [3] is Voltage-gated inwardly rectifying potassium channel KCNH2 (Homo sapiens, UniProt Q12809). Kind of data set: Inhibition of human ERG by whole-cell patch clamp method.
Data set [4] deals with T2, Voltage-dependent T-type calcium channel subunit alpha-1H (Homo sapiens, UniProt O95180). Kind of data set: Inhibition of Cav3.2 (unknown origin) assessed as reduction in KCl-induced increase in intracellular calcium level at 10 uM by fura-2 AM indicator based FDSS assay relative to control. The class given is cell-based.
In data set [5] the test system is Rattus norvegicus. Description: Analgesic activity in Sprague-Dawley rat L5/L6 spinal nerve ligation-induced neuropathic pain model assessed as decrease in paw withdrawal threshold to non-noxious cold stimuli at 100 mg/kg, po measured after 5 hrs. It counts as functional, organism-based.
Data set [6] concerns Rattus norvegicus. Kind of data set: Analgesic activity in Sprague-Dawley rat L5/L6 spinal nerve ligation-induced neuropathic pain model assessed as reversal of mechanical allodynia by measuring increase in paw withdrawal threshold to non-noxious mechanical stimuli at 100 mg/kg, po measured after 3 hrs relative to control. The class given is functional.
The subject of data set [7] is Rattus norvegicus. Description: Analgesic activity in Sprague-Dawley rat L5/L6 spinal nerve ligation-induced neuropathic pain model assessed as decrease in paw withdrawal threshold to non-noxious cold stimuli at 100 mg/kg, po measured after 1 hr. It counts as functional, organism-based.
For data set [8], the target named is CYP2C9 (Homo sapiens, UniProt P11712). Kind of data set: Inhibition of CYP2C9 (unknown origin) assessed as residual activity at 10 uM relative to control. The class given is ADME. Conditions: read-out: Activity.
In data set [9] the target is CYP2D6 (Homo sapiens, UniProt P10635). Kind of data set: Inhibition of CYP2D6 (unknown origin) assessed as residual activity at 10 uM relative to control. The class given is ADME. Conditions: read-out: Activity.
For data set [10], the target named is T3, CYP1A2 (Homo sapiens, UniProt P05177).
T3 sequence (P05177 whole entry): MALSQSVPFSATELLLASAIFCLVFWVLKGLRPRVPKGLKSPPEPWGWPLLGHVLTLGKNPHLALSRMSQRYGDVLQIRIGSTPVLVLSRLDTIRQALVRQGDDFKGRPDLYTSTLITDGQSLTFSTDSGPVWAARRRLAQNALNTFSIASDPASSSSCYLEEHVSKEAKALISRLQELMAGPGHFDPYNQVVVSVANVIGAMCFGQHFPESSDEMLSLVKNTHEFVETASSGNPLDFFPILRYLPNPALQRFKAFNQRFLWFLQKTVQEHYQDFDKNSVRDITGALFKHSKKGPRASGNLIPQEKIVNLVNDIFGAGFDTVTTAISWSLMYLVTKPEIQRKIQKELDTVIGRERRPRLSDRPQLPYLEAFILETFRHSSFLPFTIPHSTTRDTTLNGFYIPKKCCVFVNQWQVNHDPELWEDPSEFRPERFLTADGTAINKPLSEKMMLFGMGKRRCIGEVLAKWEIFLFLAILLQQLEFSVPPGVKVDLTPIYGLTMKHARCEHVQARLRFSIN
Description: Inhibition of CYP1A2 (unknown origin) assessed as residual activity at 10 uM relative to control. The following applies: read-out: Activity. It counts as ADME.

The target of data set [11] is CYP2C19 (Homo sapiens, UniProt P33261). Description: Inhibition of CYP2C19 (unknown origin) assessed as residual activity at 10 uM relative to control. The class given is ADME. Conditions: read-out: Activity.
Data set [12] concerns the target T1, Voltage-dependent T-type calcium channel subunit alpha-1G. Description: Inhibition of recombinant human Cav3.1 expressed in HEK293 cells assessed as suppression of KCl-evoked current by whole-cell patch clamp method. The class given is cell-based. (In general: The patch-clamp technique gives a direct electrical read-out from membranes.)
The target of data set [13] is T2, Voltage-dependent T-type calcium channel subunit alpha-1H. Description: Inhibition of Cav3.2 (unknown origin) assessed as suppression of KCl-evoked current by whole-cell patch clamp method.
In data set [14] the target is CYP3A4 (Homo sapiens, UniProt P08684). Description: Inhibition of CYP3A4 (unknown origin) assessed as residual activity at 10 uM relative to control. Conditions: read-out: Activity. It counts as ADME.

These results are taken from ChEMBL document CHEMBL4392842, “Structural hybridization of pyrrolidine-based T-type calcium channel inhibitors and exploration of their analgesic effects in a neuropathic pain model” (Bioorg Med Chem Lett, 2019).

A word on the inhibition: it is the drop in the measured response relative to a control, in per cent. A word on the IC50: it is the concentration needed to halve the response being measured.

Activity calls are given as the source filed them.

T2 sequence (O95180 whole entry): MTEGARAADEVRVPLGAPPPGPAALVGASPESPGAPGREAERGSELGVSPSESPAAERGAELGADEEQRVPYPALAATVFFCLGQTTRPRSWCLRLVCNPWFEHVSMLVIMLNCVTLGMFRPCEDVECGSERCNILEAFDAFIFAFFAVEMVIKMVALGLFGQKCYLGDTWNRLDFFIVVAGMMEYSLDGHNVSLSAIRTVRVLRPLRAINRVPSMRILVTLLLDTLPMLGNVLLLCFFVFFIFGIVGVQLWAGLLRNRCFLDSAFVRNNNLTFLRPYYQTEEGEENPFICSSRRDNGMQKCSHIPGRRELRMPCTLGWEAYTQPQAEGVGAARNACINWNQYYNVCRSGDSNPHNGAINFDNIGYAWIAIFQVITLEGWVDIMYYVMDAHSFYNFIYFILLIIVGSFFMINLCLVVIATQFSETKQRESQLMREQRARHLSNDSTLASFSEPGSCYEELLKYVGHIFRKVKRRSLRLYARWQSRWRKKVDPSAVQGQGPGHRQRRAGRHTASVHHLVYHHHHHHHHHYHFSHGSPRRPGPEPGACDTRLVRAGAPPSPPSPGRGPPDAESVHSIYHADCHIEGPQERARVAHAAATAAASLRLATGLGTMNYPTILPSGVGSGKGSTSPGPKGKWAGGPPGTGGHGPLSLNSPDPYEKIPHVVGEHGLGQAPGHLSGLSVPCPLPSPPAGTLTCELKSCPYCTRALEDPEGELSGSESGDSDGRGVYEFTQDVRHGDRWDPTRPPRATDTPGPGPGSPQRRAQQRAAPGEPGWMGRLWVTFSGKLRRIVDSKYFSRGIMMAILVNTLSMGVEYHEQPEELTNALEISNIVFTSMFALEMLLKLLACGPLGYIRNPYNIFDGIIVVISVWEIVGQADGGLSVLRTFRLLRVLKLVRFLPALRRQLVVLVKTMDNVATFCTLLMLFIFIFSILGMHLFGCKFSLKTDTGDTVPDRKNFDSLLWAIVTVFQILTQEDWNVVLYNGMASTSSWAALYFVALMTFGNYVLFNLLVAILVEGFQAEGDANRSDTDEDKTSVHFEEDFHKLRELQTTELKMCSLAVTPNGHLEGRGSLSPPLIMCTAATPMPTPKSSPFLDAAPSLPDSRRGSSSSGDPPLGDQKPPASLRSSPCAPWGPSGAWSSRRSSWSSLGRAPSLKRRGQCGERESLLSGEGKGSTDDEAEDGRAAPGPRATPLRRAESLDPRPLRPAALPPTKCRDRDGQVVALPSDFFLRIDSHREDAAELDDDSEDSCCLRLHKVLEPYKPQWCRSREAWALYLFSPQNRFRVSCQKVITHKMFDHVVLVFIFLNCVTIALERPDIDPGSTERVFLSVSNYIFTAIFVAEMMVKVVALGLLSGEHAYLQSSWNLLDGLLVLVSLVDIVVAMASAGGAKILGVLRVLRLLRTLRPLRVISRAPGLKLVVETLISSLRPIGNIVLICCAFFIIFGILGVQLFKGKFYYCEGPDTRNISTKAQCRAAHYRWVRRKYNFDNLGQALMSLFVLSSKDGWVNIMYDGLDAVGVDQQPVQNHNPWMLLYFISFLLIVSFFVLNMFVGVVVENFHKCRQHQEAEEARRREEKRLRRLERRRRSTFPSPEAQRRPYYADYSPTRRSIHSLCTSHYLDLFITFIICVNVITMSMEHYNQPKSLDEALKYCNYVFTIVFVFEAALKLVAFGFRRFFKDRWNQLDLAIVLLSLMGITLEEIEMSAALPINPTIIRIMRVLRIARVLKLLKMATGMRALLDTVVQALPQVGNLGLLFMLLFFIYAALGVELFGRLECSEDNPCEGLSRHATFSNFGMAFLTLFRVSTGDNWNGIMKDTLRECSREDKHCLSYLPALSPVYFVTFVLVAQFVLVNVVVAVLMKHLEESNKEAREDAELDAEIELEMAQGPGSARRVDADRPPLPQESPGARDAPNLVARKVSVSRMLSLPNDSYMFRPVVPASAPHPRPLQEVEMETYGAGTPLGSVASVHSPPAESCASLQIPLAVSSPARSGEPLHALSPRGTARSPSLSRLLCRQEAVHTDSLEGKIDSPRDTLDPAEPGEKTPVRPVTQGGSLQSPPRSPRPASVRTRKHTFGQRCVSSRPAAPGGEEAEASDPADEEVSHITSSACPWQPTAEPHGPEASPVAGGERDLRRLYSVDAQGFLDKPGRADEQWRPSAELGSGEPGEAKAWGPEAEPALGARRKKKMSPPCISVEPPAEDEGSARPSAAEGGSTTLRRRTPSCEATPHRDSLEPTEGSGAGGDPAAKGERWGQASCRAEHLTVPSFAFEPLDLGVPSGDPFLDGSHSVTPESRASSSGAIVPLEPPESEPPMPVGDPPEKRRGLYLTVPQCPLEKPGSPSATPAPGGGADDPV
Chain of Voltage-gated inwardly rectifying potassium channel KCNH2 (Q12809 whole entry): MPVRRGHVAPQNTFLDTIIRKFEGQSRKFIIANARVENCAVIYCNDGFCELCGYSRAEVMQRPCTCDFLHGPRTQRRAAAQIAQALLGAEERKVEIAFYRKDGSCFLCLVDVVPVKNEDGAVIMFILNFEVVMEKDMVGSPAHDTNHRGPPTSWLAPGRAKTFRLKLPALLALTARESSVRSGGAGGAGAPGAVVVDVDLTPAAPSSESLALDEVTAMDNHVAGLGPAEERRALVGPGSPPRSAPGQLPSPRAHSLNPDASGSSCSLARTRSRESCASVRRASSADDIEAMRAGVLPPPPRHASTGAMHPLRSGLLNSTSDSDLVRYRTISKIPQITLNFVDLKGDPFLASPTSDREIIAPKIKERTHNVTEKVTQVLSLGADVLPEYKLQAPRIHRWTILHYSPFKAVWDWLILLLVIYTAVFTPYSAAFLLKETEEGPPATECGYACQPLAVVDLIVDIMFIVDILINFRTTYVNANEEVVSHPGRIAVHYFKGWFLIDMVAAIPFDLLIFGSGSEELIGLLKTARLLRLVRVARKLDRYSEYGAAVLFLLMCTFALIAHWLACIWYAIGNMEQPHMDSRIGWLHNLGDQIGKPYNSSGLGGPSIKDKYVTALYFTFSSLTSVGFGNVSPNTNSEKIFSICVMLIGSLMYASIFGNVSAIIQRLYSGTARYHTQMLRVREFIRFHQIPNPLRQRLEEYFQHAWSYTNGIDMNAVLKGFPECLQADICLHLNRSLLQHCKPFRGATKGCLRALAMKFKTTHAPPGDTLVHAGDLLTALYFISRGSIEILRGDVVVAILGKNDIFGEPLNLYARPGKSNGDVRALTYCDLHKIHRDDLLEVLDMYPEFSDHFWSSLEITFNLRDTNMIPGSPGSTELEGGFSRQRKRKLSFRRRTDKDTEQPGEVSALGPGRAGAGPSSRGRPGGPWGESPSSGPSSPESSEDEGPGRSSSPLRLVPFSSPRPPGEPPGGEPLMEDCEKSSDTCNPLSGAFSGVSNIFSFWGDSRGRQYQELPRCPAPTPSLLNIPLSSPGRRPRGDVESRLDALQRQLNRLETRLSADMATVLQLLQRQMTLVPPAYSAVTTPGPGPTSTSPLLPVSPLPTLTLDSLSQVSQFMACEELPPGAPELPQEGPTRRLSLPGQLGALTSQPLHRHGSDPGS
Chain of CYP2D6 (P10635 whole entry): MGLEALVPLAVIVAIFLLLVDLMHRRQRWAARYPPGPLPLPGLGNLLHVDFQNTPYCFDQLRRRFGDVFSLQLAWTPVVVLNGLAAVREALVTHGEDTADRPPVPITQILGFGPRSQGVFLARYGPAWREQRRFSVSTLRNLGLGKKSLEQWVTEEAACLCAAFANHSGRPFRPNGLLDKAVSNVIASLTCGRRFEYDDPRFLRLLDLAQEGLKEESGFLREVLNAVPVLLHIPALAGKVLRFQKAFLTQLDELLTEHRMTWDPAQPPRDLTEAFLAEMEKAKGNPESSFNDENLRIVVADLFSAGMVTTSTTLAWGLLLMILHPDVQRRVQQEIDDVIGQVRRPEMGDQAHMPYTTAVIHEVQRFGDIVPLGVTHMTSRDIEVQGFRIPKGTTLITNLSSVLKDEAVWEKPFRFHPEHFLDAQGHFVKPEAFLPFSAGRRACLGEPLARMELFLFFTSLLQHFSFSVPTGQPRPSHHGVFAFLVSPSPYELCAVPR
Chain of CYP2C9 (P11712 whole entry): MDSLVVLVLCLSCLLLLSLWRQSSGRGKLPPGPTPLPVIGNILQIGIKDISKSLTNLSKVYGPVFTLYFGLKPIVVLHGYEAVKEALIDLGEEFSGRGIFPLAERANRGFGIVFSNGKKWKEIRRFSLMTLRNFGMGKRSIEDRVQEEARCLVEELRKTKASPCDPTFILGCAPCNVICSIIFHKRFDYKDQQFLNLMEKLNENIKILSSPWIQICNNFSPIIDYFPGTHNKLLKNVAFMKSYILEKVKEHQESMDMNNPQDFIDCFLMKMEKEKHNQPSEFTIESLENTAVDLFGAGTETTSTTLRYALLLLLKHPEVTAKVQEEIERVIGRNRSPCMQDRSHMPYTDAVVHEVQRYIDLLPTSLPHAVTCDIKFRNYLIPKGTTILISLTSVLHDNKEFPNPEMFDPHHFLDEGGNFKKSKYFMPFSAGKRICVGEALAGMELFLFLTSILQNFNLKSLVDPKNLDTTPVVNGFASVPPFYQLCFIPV
Chain of CYP3A4 (P08684 whole entry): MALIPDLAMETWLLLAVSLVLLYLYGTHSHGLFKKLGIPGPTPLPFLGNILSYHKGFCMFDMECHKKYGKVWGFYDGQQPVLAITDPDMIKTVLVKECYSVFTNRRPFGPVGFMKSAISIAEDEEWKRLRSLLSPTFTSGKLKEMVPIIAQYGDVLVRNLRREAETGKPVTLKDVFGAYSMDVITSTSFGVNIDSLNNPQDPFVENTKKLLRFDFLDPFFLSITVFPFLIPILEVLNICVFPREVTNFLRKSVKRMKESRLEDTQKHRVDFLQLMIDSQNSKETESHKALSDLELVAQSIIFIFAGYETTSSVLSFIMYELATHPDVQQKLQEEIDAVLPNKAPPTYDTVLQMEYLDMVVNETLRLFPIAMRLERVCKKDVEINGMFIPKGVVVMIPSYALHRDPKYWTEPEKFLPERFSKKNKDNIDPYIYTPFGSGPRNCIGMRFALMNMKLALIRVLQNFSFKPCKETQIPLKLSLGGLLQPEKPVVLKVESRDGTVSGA

As for `CC(C)c1cc(C(=O)NC[C@H]2CCN(CCc3ccc(Cl)c(F)c3)C2)on1`, the remaining at 0.5 h in [1] worked out at 26.2%. The inhibition in data set [2] worked out at 59.9%; in data set [4], 50.1%. Further, the concentration for half-maximal inhibition (IC50) in data set [3] came out at 1520 nM.

For `COC(=O)C1=C(C)NC(C)=C(C(=O)NC[C@H]2CCN(CCc3ccc(Cl)c(Cl)c3)C2)C1c1cccc([N+](=O)[O-])c1` (stereo not given in full), the remaining at 0.5 h in [1] amounted to 2.87%. Moreover, the inhibition in [2] came to 32.5%; in data set [4] it was 31.3%.

With `CC(C)c1cc(C(=O)NC[C@H]2CCNC2)on1`, the inhibition in [2] was found to be 11.4%; in data set [4], 8.36%.

Consider `NCC1(CC(=O)O)CCCCC1`, for which the Activity result in data set [5] and in data set [6] was “Active” each time.

`COC(=O)C1=C(C)NC(C)=C(C(=O)NC[C@H]2CCN(CCc3ccc(C)c(C(F)(F)F)c3)C2)C1c1cccc([N+](=O)[O-])c1` (stereo not given in full): in data set [1], the remaining at 0.5 h was determined as 0.63%. Besides, the inhibition in [2] worked out at 78.3%; in [4], 65.2%. Moreover, in [3], the IC50 worked out at 2700 nM.

For `CC(C)c1cc(C(=O)NC[C@H]2CCN(Cc3cccnc3)C2)on1`, the inhibition in data set [2] worked out at 2.4%; in [4], 11.6%.

With `CC(C)c1cc(C(=O)NC[C@H]2CCN(CCc3ccc(OC(F)(F)F)c(F)c3)C2)on1`, the remaining at 0.5 h in data set [1] was found to be 35.2%. Further, the inhibition was determined as 36.4% in [2] and 59.7% in data set [4]. In addition, in [3], the midpoint of inhibition, the IC50, lay at 160 nM.

On to `CC(C)c1cc(C(=O)NC[C@H]2CCN(CCc3ccc(C(F)(F)F)cc3)C2)on1`, for which, in data set [1], the remaining at 0.5 h turned out to be 34.2%. Also, the inhibition is 48.7% in data set [2] and 63.2% in [4].

Take `COC(=O)C1=C(C)NC(C)=C(C(=O)NC[C@H]2CCN(CCc3ccc(Cl)c(F)c3)C2)C1c1cccc([N+](=O)[O-])c1` (stereo not given in full): the remaining at 0.5 h in data set [1] was found to be 2.13%. The inhibition in data set [2] is 80.3%; in data set [4], 69.7%. In data set [3], this molecule came in with an IC50 of 330 nM.

Consider `Cc1ccc(CCN2CC[C@H](CNC(=O)c3cc(C(C)C)no3)C2)cc1C(F)(F)F`, for which the Activity entry in data set [7] and in data set [5] was “Active” in each case. Also, the activity at 10 µM came to 53.9% in [8]; 31.2% in data set [9]; 88.1% in data set [10]; 50.4% in [11]; 33% in data set [14]. The remaining at 0.5 h in data set [1] was found to be 39.8%. The values for the inhibition in data set [2] and in data set [4] were 46.8% and 51.9%, respectively. Further, the values for the half-inhibitory concentration (IC50) in [3], in data set [12] and in [13] were 1900 nM, 5130 nM and 7610 nM, respectively. Further, the Activity in [6] stood at 80%.

Turning to `COC(=O)C1=C(C)NC(C)=C(C(=O)NC[C@H]2CCNC2)C1c1cccc([N+](=O)[O-])c1` (stereo not given in full), the results for the inhibition in data set [2] and in data set [4] were 5.49% and 21.8%, respectively.

As for `CC(C)c1cc(C(=O)NC[C@H]2CCN(CCC(C)(C)C)C2)on1`, the inhibition in data set [2] was 23.3%; in [4], 21.1%.

For the molecule `CC(C)c1cc(C(=O)NC[C@H]2CCN(CCc3ccc(Cl)c(Cl)c3)C2)on1`, the remaining at 0.5 h in data set [1] was found to be 51.7%. Also, the inhibition is 71.7% in data set [2] and 69.7% in data set [4]. This molecule also had an IC50 in [3] of 1530 nM.

Consider `COC(=O)C1=C(C)NC(C)=C(C(=O)NC[C@H]2CCN(CCc3ccc(C(F)(F)F)cc3)C2)C1c1cccc([N+](=O)[O-])c1` (stereo not given in full), for which, in data set [1], the remaining at 0.5 h turned out to be 2.01%. The inhibition in data set [2] was 43.5%; in data set [4] it was 34.1%. The molecule further gave an IC50 in data set [3] of 1480 nM.

Take `COC(=O)C1=C(C)NC(C)=C(C(=O)NC[C@H]2CCN(CCc3ccc(OC(F)(F)F)c(F)c3)C2)C1c1cccc([N+](=O)[O-])c1` (stereo not given in full): the remaining at 0.5 h in data set [1] is 0.25%. In addition, the inhibition was found to be 26.4% in [2] and 33.7% in data set [4]. In [3], this molecule returned an IC50 of 1470 nM.

Regarding `CC(C)c1cc(C(=O)NC[C@H]2CCN(C(=O)CC(C)(C)C)C2)on1`, the inhibition in data set [2] worked out at 23.1%; in data set [4], 17.8%.
